Laboratory results from patent publication US20230050846A1, “TREATMENT OF HEPATIC AND CARDIOVASCULAR DISORDERS” (LIFESEARCH, priority 2019, published 2023).
Where two headings read alike, the source gives them in different places. Peptide text beside a SMILES is read from it. * marks the point of attachment. Palmitoyl = CCCCCCCCCCCCCCCC(=O)*

Tests used:
[1] = test system: C57B/L6J mice fed western-diet; experiment: Western diet-induced hepatic steatosis mouse model; format: in vivo; conditions: ip daily 1 mg/kg/day
Method: (§1) Wild-type C57B/L6J male mice were purchased from Janvier Labs (Le Genest Saint Isle, France). Mice were caged in animal rooms under specific pathogen free conditions at the animal facility of Rangueil (Anexplo platform, US006, Toulouse, France) with a light/dark schedule of 12 h/12 h. At the initiation of the dietary intervention, all animals were 8 weeks old and were fed ad libitum with a normal chow diet (#V1535 R/M-H, Ssniff, Germany). All animal experimental procedures were conducted in accordance with institutional guidelines on animal experimentation approved by the local ethical committee of animal care and are conformed to the guidelines from Directive 2010/63/EU of the European Parliament on the protection of animals used for scientific purposes or the NIH guideline.
8 weeks old mice were fed fed western-diet for 4-weeks (Envigo #TD.88137 containing 0.2% cholesterol, 42% kcal from fat, 34% sucrose by weight). For the 2 last weeks of the 4-week period, mice were daily intraperitoneally administrated at 1 mg/kg/day with the peptide of formula (I) or PBS (control group). Following the treatment period, mice were fasted overnight, anesthetized by intra-peritoneal injection of ketamine and xylazine hydrochloride then killed by exsanguination. Body weight, liver triglyceride content, plasma lipids and transaminases were determined at sacrifice.
100 mg of liver tissue were homogenized in 900 μL of phosphate buffer pH 7.4 until complete tissue lysis. Lipids were extracted by mixing 125 μL of lysates with 1 mL of CHCl3:MeOH (2:1). After centrifugation, the chloroform phase was evaporated under nitrogen flux, and the dried residue was solubilized in 200 μL of isopropanol. Triglycerides were measured using commercial kits based on GPO-PAP detection method (Biolabo SA, Maizy, France). Results were expressed as mg of triglycerides/g liver.
Triglycerides and cholesterol levels were determined using commercial colorimetric kits (Biolabo SA, Maizy, France) based on CHOD-PAP and GPO-PAP detection methods, coupling enzymatic reaction and spectrophotometric detection of reaction end products. Alanine-aminotransferase (ALT) and aspartate-aminotransferase (AST) levels were determined using a COBAS-MIRA+ biochemical analyser (Anexplo facility, Toulouse, France).
Blood glucose levels were measured by tail vein sampling with portable glucometer (Accu-check, Roche) 30 min before oral glucose load and at 0, 15, 30, 45, 60, 90 and 120 min after oral glucose load. Plasma insulin concentration was determined 30 min before and 15 min after glucose loading in 5 μL of plasma using an ELISA kit (Mercodia, Uppsala, Sweden) according to the manufacturer's instructions.

[2] = Pharmacokinetics in mice (plasma, LC-MS/MS); format: in vivo, mouse; conditions: 25 mg/kg; for MRT: read-out: MRT (mean residence time)
Method: The peptide of formula (I) and the peptide of formula (II) were analyzed in mouse EDTA plasma using a validated assay involving trypsin proteolysis and the subsequent analysis of a signature peptide (SEQ ID NO: 3) by liquid chromatography-tandem mass spectrometry (LC-MS/MS). The working solution of unlabeled peptide (SEQ ID NO: 3, 1 mM) was serially diluted in water to obtain 7 standard solutions ranging 0.05-5 μM. Plasma and standard samples (40 μL) were reduced, alkylated and trypsin-digested overnight using the ready-to-use solutions of the ProteinWorks™ eXpress kit (Waters Corporation, Milford, Mass., USA), according to the manufacturer's instructions (except trypsin incubation time optimized to 7 h). The working solution of the labeled proteotypic peptide ([SEQ ID NO: 4]-[^13C6, ^15N4]-K, 1 mM) was used as internal standard (IS) and added to the digestion buffer to a final concentration of 0.5 μM. After digestion, samples were cleaned using 30 mg Oasis HLB 1 cc Cartridges (Waters Corporation). Cartridges were conditioned, equilibrated, loaded, washed and eluted with methanol (1 mL), water (1 mL), samples (˜200 μL), 5% methanol containing 0.1% TFA (1 mL) and 60% methanol containing 0.1% TFA (1 mL), respectively. Eluates were dried under a nitrogen stream, reconstituted with 100 μL of 10% acetonitrile containing 0.1% formic acid, and 10 μL were injected into the LC-MS/MS system. LC-MS/MS analyses were performed on a Xevo® TQD mass spectrometer with an electrospray (ESI) interface and an Acquity H-Class® UPLC™ device (Waters Corporation). Proteotypic peptides were separated over 9 min on an Acquity® BEH C18 column (2.1×100 mm, 1.7 μm, Waters Corporation) held at 60° C. with a linear gradient of mobile phase B (100% acetonitrile) in mobile phase A (5% acetonitrile), each containing 0.1% formic acid, and at a flow rate of 600 μL/min. […] Proteotypic peptides were then detected by the mass spectrometer with the ESI interface operating in the positive ion mode (capillary voltage, 3 kV; desolvatation gas (N2) flow and temperature, 900 L/h and 400° C.; source temperature, 150° C.). The multiple reaction monitoring mode was applied for MS/MS detection (SEQ ID NO: 3, m/z 368.8→536.5, y6^+; [SEQ ID NO: 4]-[^13C6, ^15N4]-K, m/z 372.8→544.4, y6) with cone and collision voltages set at 20 and 14 V, respectively. Data acquisition and analyses were performed with MassLynx® and TargetLynx® software, respectively (version 4.1, Waters Corporation). Chromatographic peak area ratio between unlabeled peptide and IS constituted the detector responses. Standard solutions were used to plot calibration curves for peptide quantification. The linearity was expressed by the mean r^2 which was greater than 0.998 (linear regression, 1/x weighting, origin excluded). […] The peptide of formula (I) and the peptide of formula (II) concentrations were expressed in μM assuming 1 mole of peptide equivalent to 1 mole of the peptide of formula (I) and the peptide of formula (II), respectively. Concentrations were then converted to their standard unit (ng/mL) assuming molecular weights of 3540 Da and 3917 Da for the peptide of formula (I) and the peptide of formula (II), respectively.
as §1, with “h” for “h. At the initiation of the dietary intervention, all animals were 8 weeks old”, “guideline. […]” for “guideline.”

[3] = male, C57B/L6J, mouse, plasma, sc
[4] = male, C57B/L6J, mouse, plasma, sc, sc
[5] = male, C57B/L6J, mouse, plasma, sc, sc, read-out: t1/2lbd1 (distribution half-life) (converted)
[6] = male, C57B/L6J, mouse, plasma, sc, sc, read-out: t1/2lbdz (elimination half-life) (converted)

In the case of CCCCCCCCCCCCCCCC(=O)NCCCC[C@H](NC(=O)[C@H](CCC(=O)O)NC(=O)[C@H](CCCNC(=N)N)NC(=O)[C@H](CO)NC(=O)[C@H](CCC(N)=O)NC(=O)[C@H](C)NC(=O)[C@H](CCCNC(=N)N)NC(=O)[C@H](Cc1ccccc1)NC(=O)[C@H](Cc1ccc(O)cc1)NC(=O)[C@H](CCCNC(=N)N)NC(=O)[C@H](CCC(=O)O)NC(=O)[C@H](CCC(=O)O)NC(=O)[C@H](CCC(=O)O)NC(=O)[C@H](C)NC(=O)[C@H](CCC(N)=O)NC(=O)[C@H](CCC(=O)O)NC(=O)[C@H](CCCNC(=N)N)NC(=O)[C@H](CCCCN)NC(=O)CNC(=O)[C@H](Cc1ccccc1)NC(=O)[C@H](C)NC(=O)CNC(=O)CNC(=O)[C@H](C)NC(=O)[C@H](CCC(=O)O)NC(=O)[C@H](CCCNC(=N)N)NC(=O)[C@@H](NC(=O)[C@H](CO)NC(=O)CNC(=O)[C@H](C)NC(=O)CNC(=O)[C@H](CCCNC(=N)N)NC(C)=O)[C@@H](C)CC)C(N)=O [peptide of formula (II), CH3CO-[SEQ ID NO: 1]-K-[palmitoyl]-NH2] (Ac-RGAGSIREAGGAFGKREQAEEERYFRAQSREK(Palmitoyl)-NH2), the “oral glucose tolerance (OGTT)” value ([1]; OGTT 10 days after initiation) is reported as “improved”, the basal insulin level ([1]; p<0.05 vs PBS) is reported as “decreased” and the “plasma HDL-cholesterol (HDL-C) level” value ([1]; two weeks) is reported as “no effect”. For the same molecule, the plasma triglycerides level ([1]; two weeks) was “no effect”, the liver/body weight ratio ([1]; two weeks, p<0.01 vs PBS) was “decrease” and the hepatic triglyceride concentration ([1]; two weeks, p<0.05 vs PBS) was “reduction”. For the same molecule, the “plasma ALT level” value ([1]; two weeks, p<0.05 vs PBS) was “significantly reduced”, the “plasma level of total cholesterol” value ([1]; two weeks, p<0.05 vs PBS) was “significantly decrease” and the hepatic steatosis ([1]; two weeks, vs PBS) was “significantly reduced”. It also gave an AUC [2, 3] of 211000 ng·h/mL, a Cmax [2, 3] of 25600 ng/mL and a Tmax [2, 3] of 240 min. It also gave an MRT [2, 4] of 349 min, a half-life [2, 5] of 125 min and a half-life [2, 6] of 752 min. The “Cl (total plasma clearance)” value ([2]; sc) was 0.83 mL/min/kg and the “Vd (volume of distribution)” value ([2]; sc) was 1 L/kg.
With “Ac-RGAGSIREAGGAFGKREQAEEERYFRAQSRE-NH2 [peptide of formula (I), CH3CO-[SEQ ID NO: 1]-NH2]” the AUC ([2]; male, C57B/L6J, mouse, plasma, iv) was 13300 ng·h/mL, the MRT ([2]; male, C57B/L6J, mouse, plasma, iv, iv) was 8.4 min and the half-life ([2]; male, C57B/L6J, mouse, plasma, iv, iv, read-out: t1/2lbd1 (distribution half-life) (converted)) was 3.6 min. For the same molecule, the half-life ([2]; male, C57B/L6J, mouse, plasma, iv, iv, read-out: t1/2lbdz (elimination half-life) (converted)) was 15.6 min, the clearance ([2]; male, C57B/L6J, mouse, plasma, iv, read-out: Cl (total plasma clearance) (converted)) was 31.7 mL/min/kg and the Vd ([2]; male, C57B/L6J, mouse, plasma, iv, read-out: Vd (volume of distribution)) was 0.7 L/kg. It also gave an AUC [2, 3] of 6140 ng·h/mL, a Cmax [2, 3] of 8290 ng/mL and a Tmax [2, 3] of 15 min. For the same molecule, the MRT [2, 4] was 33 min, the half-life [2, 5] was 11.4 min and the half-life [2, 6] was 12.6 min. The “Vd (volume of distribution)” value ([2]; sc) was 0.5 L/kg.
